Consider 10 molecules from patent US20070105826A1, “Novel fusidic acid derivatives” (LEO PHARMA A/S, priority 2003, published 2007).

Holding throughout (test): MIC (Minimum Inhibitory Concentration) determination, broth dilution in 96-well plates
Format in all cases: cell-based
In general terms: In broth dilution the organism is exposed to a series of concentrations in liquid medium.

The test system of experiment [1] is Staphylococcus aureus FDA486. Conditions: LB broth, aerobic, 37° C., 24 h, cells at t = 0 ˜10^6/ml; for MIC: Staphylococcus aureus, FDA486, read-out: Antibacterial activity, MIC, Staph. aureus FDA486. As for the experimental part:
(§1) The fusidic acid analogues of the invention and the reference compounds 201 (fusidic acid (as the sodium salt)), 207, 205 203 and 206 (see notes to Table A) were stored in powder form at +4° C. When used in assays, they were dissolved in 95% EtOH (3.84 mg/ml) and kept for a maximum of 1 month at −20° C. before being discarded. [table] LB media (per 1000 ml ddH2O: 10 g Bacto-tryptone, 5 g yeast extract, 10 g NaCl). THB (Todd-Hewitt Broth) media, SIGMA, product number: T1438 (per 1000 ml ddH2O: 50 g Beef-Heart Infusion, 20 g Casein peptone, 2 g Dextrose, 2 g NaHCO3, 2.5 g NaCl, 0.4 g Na2HPO4). Plates were made using an agar concentration of 1.5%. Blood-agar plates contained an additional 5% (v/v) defibrinated horse blood purchased from SLU (Swedish Agricultural University), Uppsala. MIC tests on the compounds were done in 96-well micro titer plates (Thermo Labsystems). 4×10^5 bacteria were inoculated in 0.4 ml growth media (S. aureus, LB broth, S. pyogenes—TH broth) containing serial dilutions of the compound to be tested starting from 128 μg/ml (dilution factor 2, e.g. 128 μg/ml, 64 μg/ml, . . . , 0.016 μg/ml). The criterion for sensitivity is no visible growth after a 24 h, aerobic incubation at 37° C. Each compound was tested at least twice, and fusidic acid was always included as an experimental control. [table]

The subject of experiment [2] is Streptococcus pyogenes DA7864. Conditions: TH broth, aerobic, 37° C., 24 h, cells at t = 0 ˜10^6/ml; for MIC: Streptococcus pyogenes, DA7864, read-out: Antibacterial activity, MIC, Strep. pyogenes DA7864. As for the experimental part:
as §1

Experiment [3] relates to Streptococcus pyogenes DA7121. Conditions: TH broth, aerobic, 37° C., 24 h, cells at t = 0 ˜10^6/ml; for MIC: Streptococcus pyogenes, DA7121, read-out: Antibacterial activity, MIC, Strep. pyogenes DA7121. As for the experimental part:
as §1

The subject of experiment [4] is Staphylococcus aureus 8325-4. Conditions: LB broth, aerobic, 37° C., 24 h, cells at t = 0 ˜10^6/ml. The protocol: as §1
For experiment [5], the system named is Staphylococcus aureus CJ12. Particulars: LB broth, aerobic, 37° C., 24 h, cells at t = 0 ˜10^6/ml; for MIC: Staphylococcus aureus, CJ12, read-out: Antibacterial activity, MIC, Staph. aureus CJ12. As for the experimental part:
as §1

≈ marks a conversion by molar mass, not a printed value.

The term MIC denotes the lowest concentration that inhibits growth of the organism. Take `CC(=O)O[C@H]1C[C@@]2(C)[C@@H](C[C@@H](O)[C@H]3[C@@]4(C)CC[C@@H](O)[C@@H](C)[C@@H]4CC[C@@]32C)/C1=C(\CCC=C(C)C)C(=O)O` [Ref. comp. 201, Fusidic acid]: the minimum inhibitory concentration (MIC) came out at 0.11 µg/mL (≈ 0.213 µM) in experiment [1]; 3.5 µg/mL (≈ 6.77 µM) in experiment [2]; 3.5 µg/mL (≈ 6.77 µM) in experiment [3]; 0.03 µg/mL (≈ 0.0581 µM) in experiment [4] (Staphylococcus aureus, 83254, read-out: Antibacterial activity, MIC, Staph. aureus 8325-4); 0.03 µg/mL (≈ 0.0581 µM) in experiment [5].
For `CC(=O)O[C@H]1C[C@@]2(C)[C@@H](C[C@@H](O)[C@H]3[C@@]4(C)CC[C@@H](O)[C@@H](C)[C@@H]4CC[C@@]32C)[C@]12C[C@]2(CCC=C(C)C)C(=O)O` [Ref. comp. 206, 17S,20S-Methylene-fusidic acid], the “Antibacterial activity, MIC, Staph. aureus FDA486” value in experiment [1] came out at 0.22 µg/mL. Also, in experiment [2], the “Antibacterial activity, MIC, Strep. pyogenes DA7864” value turned out to be 28 µg/mL. Besides, the “Antibacterial activity, MIC, Strep. pyogenes DA7121” value in experiment [3] was more than 32 µg/mL. The “Antibacterial activity, MIC, Staph. aureus 8325-4” value in experiment [4] was found to be 0.11 µg/mL. Moreover, in experiment [5], the “Antibacterial activity, MIC, Staph. aureus CJ12” value was 0.06 µg/mL.
Take `CC(C)=C(Br)CC/C(C(=O)O)=C1\C2C[C@@H](O)C3[C@@]4(C)CC[C@@H](O)[C@@H](C)C4CC[C@]3(C)[C@@]2(C)C[C@@H]1[S+]([O-])C(C)C` (stereo partly drawn) [Compound 113, 24-bromo-16-deacetoxy-16β-isopropylsulfinyl-fusidic acid]: the MIC in experiment [1] stood at 0.22 µg/mL (≈ 0.35 µM); in experiment [2] it was 0.4 µg/mL (≈ 0.637 µM); in experiment [3], 0.4 µg/mL (≈ 0.637 µM); in experiment [5], 0.11 µg/mL (≈ 0.175 µM).
For `CCO[C@H]1C[C@@]2(C)[C@@H](C[C@@H](O)[C@H]3[C@@]4(C)CC[C@@H](O)[C@@H](C)[C@@H]4CC[C@@]32C)/C1=C(\CCC=C(C)C)C(=O)O` [Ref. comp. 203, 16-Deacetoxy-16β-ethoxy-fusidic acid], in experiment [1], the “Antibacterial activity, MIC, Staph. aureus FDA486” value came out at 0.22 µg/mL. For the same molecule, in experiment [2], the “Antibacterial activity, MIC, Strep. pyogenes DA7864” value came out at 14 µg/mL. Moreover, the “Antibacterial activity, MIC, Strep. pyogenes DA7121” value in experiment [3] is 7 µg/mL. For the same molecule, the “Antibacterial activity, MIC, Staph. aureus 8325-4” value in experiment [4] was 0.22 µg/mL. Moreover, the “Antibacterial activity, MIC, Staph. aureus CJ12” value in experiment [5] was found to be 0.06 µg/mL.
As to “24-bromo-17S,20S-methylene-fusidic acid [Compound 122]”, in experiment [1], the “Antibacterial activity, MIC, Staph. aureus FDA486” value came out at 0.88 µg/mL. Besides, the “Antibacterial activity, MIC, Strep. pyogenes DA7864” value in experiment [2] came to 7 µg/mL. The “Antibacterial activity, MIC, Strep. pyogenes DA7121” value in experiment [3] is 7 µg/mL. In addition, in experiment [4], the “Antibacterial activity, MIC, Staph. aureus 8325-4” value was 0.88 µg/mL. Also, the “Antibacterial activity, MIC, Staph. aureus CJ12” value in experiment [5] came out at 0.22 µg/mL.
With “24-bromo-16-deacetoxy-16β-ethoxy-fusidic acid [Compound 116]”, the “Antibacterial activity, MIC, Staph. aureus FDA486” value in experiment [1] came to 0.44 µg/mL. Moreover, the “Antibacterial activity, MIC, Strep. pyogenes DA7864” value in experiment [2] was determined as 7 µg/mL. Besides, the “Antibacterial activity, MIC, Strep. pyogenes DA7121” value in experiment [3] was found to be 7 µg/mL. Besides, in experiment [4], the “Antibacterial activity, MIC, Staph. aureus 8325-4” value amounted to 0.11 µg/mL. Moreover, the “Antibacterial activity, MIC, Staph. aureus CJ12” value in experiment [5] is 0.06 µg/mL.
As for `CC(C)=CCC/C(C(=O)O)=C1/[C@@H]([S+]([O-])C(C)C)C[C@@]2(C)[C@H]1C[C@@H](O)[C@H]1[C@@]3(C)CC[C@@H](O)[C@@H](C)[C@@H]3CC[C@@]12C` (stereo partly drawn) [Ref. comp. 207, 16-Deacetoxy-16β-isopropylsulfinyl-fusidic acid], the “Antibacterial activity, MIC, Staph. aureus FDA486” value in experiment [1] worked out at 0.22 µg/mL. Also, the “Antibacterial activity, MIC, Strep. pyogenes DA7864” value in experiment [2] stood at 1.6 µg/mL. In experiment [3], the “Antibacterial activity, MIC, Strep. pyogenes DA7121” value stood at 1.6 µg/mL. For the same molecule, the “Antibacterial activity, MIC, Staph. aureus CJ12” value in experiment [5] came to 0.05 µg/mL.
“24-bromo-17S,20S-dihydrofusidic acid [Compound 115]”: the “Antibacterial activity, MIC, Staph. aureus FDA486” value in experiment [1] came out at 0.88 µg/mL. Further, the “Antibacterial activity, MIC, Strep. pyogenes DA7864” value in experiment [2] was found to be 1.8 µg/mL. The “Antibacterial activity, MIC, Strep. pyogenes DA7121” value in experiment [3] came out at 1.8 µg/mL. Further, the “Antibacterial activity, MIC, Staph. aureus 8325-4” value in experiment [4] stood at 0.11 µg/mL. Also, the “Antibacterial activity, MIC, Staph. aureus CJ12” value in experiment [5] is 0.06 µg/mL.
As for `CC(=O)OC1CC2(C)C(CC(O)C3C4(C)CCC(O)C(C)C4CCC32C)C1C(CCC=C(C)C)C(=O)O` (stereo not drawn) [Ref. comp. 205, 17S,20S-Dihydrofusidic acid], the “Antibacterial activity, MIC, Staph. aureus FDA486” value in experiment [1] is 0.44 µg/mL. Also, the “Antibacterial activity, MIC, Strep. pyogenes DA7864” value in experiment [2] came out at 28 µg/mL. Moreover, the “Antibacterial activity, MIC, Strep. pyogenes DA7121” value in experiment [3] turned out to be 14 µg/mL. For the same molecule, in experiment [4], the “Antibacterial activity, MIC, Staph. aureus 8325-4” value worked out at 0.11 µg/mL. For the same molecule, the “Antibacterial activity, MIC, Staph. aureus CJ12” value in experiment [5] is 0.06 µg/mL.
`CC(=O)O[C@H]1C[C@@]2(C)[C@@H](C[C@@H](O)[C@H]3[C@@]4(C)CC[C@@H](O)[C@@H](C)[C@@H]4CC[C@@]32C)/C1=C(\CCC(Br)=C(C)C)C(=O)O` [Compound 108, 24-bromo-fusidic acid]: the “Antibacterial activity, MIC, Staph. aureus FDA486” value in experiment [1] amounted to 0.05 µg/mL. Besides, the “Antibacterial activity, MIC, Strep. pyogenes DA7864” value in experiment [2] stood at 0.8 µg/mL. In experiment [3], the “Antibacterial activity, MIC, Strep. pyogenes DA7121” value amounted to 0.8 µg/mL. The “Antibacterial activity, MIC, Staph. aureus CJ12” value in experiment [5] stood at 0.03 µg/mL.
